This note sets out measurements from PubChem BioAssay AID256 (DTP/NCI, 2004).

“And” between values parts separate entries of the source, which are not always exact repeats. Equal values may be shown once. Inconclusive results and toxic doses are left out.

For this experiment, the system named is CD2F1 mice, L1210 leukemia ip, survival T/C. Briefly: NCI In Vivo Anticancer Drug Screen. Data for tumor model L1210 Leukemia (intraperitoneal) in CD2F1 (CDF1) mice. To be noted: higher = longer survival. In a few lines: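 Vehicle-treated tumor-bearing mice served as controls (C) for compound-treated mice (T). Reported figure is T divided by C.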
The mark [1] stands for this setting: endpoint: mean survival time, dose: 100.0 mg/kg/injection, schedule: Q04DX003 (ip), vehicle: saline with Tween-80.
Setting [2] is: endpoint: mean survival time, dose: 200.0 mg/kg/injection, schedule: Q04DX003 (ip), vehicle: saline with Tween-80.
Setting [3] is: endpoint: mean survival time, dose: 400.0 mg/kg/injection, schedule: Q04DX003 (ip), vehicle: saline with Tween-80.
Setting [4] is: endpoint: mean survival time, dose: 50.0 mg/kg/injection, schedule: Q01DX009 (ip), vehicle: saline with Tween-80.
The mark [5] stands for this setting: endpoint: mean survival time, dose: 100.0 mg/kg/injection, schedule: Q01DX009 (ip), vehicle: saline with Tween-80.
Where [6] appears, read: endpoint: mean survival time, dose: 200.0 mg/kg/injection, schedule: Q01DX009 (ip), vehicle: saline with Tween-80.
The mark [7] stands for this setting: endpoint: mean survival time, dose: 400.0 mg/kg/injection, schedule: Q01DX009 (ip), vehicle: saline with Tween-80.

With `Cc1ccc(C2=CC(=O)C(c3ccc(C)cc3C)=CC2=O)c(C)c1`, the T/C is 92 % of control (endpoint: mean survival time, dose: 100.0 mg/kg/injection, schedule: Q01DX001 (ip), vehicle: saline with Tween-80); 86 % of control (endpoint: mean survival time, dose: 100.0 mg/kg/injection, schedule: Q04DX002 (ip), vehicle: saline with Tween-80); 91 % of control (endpoint: mean survival time, dose: 200.0 mg/kg/injection, schedule: Q01DX001 (ip), vehicle: saline with Tween-80); 93 % of control (endpoint: mean survival time, dose: 200.0 mg/kg/injection, schedule: Q04DX002 (ip), vehicle: saline with Tween-80); 94 % of control (endpoint: mean survival time, dose: 400.0 mg/kg/injection, schedule: Q01DX001 (ip), vehicle: saline with Tween-80); 101 % of control (endpoint: mean survival time, dose: 400.0 mg/kg/injection, schedule: Q04DX002 (ip), vehicle: saline with Tween-80).

Consider `CC1(C)COC(C)(C(=O)O)OC1`, for which the T/C runs as follows: under setting [1], 98 % of control; under setting [2], 98 % of control; under setting [3], 96 % of control.

Regarding `CCC1CCCCC1(O)CC` (configuration not stated), the T/C is, setting by setting: under setting [1], 106 % of control; under setting [2], 103 % of control; under setting [3], 103 % of control.

On to `CC#CS(=O)(=O)C(C)(C)C`, for which the T/C reads like this: under setting [4], 100 % of control; under setting [5], 100 % of control; under setting [1], 93 % of control; under setting [6], 97 % of control; under setting [2], 90 % of control.

`Cc1[nH]c(=O)[nH]c(=O)c1-n1nnc2ccccc2c1=O`: the T/C was 97 % of control under setting [1], 97 % of control under setting [2] and 95 % of control under setting [3].

Take `O=C(O)C(NC1CCCCC1)c1ccccc1` (configuration not stated): the T/C reads like this: under setting [4], 95 % of control; under setting [5], 103 % of control; under setting [1], 92 % of control; under setting [6], 92 % of control; under setting [2], 93 % of control.

Take `CC(=O)CCN1Cc2cc3c(cc2C(O)C1)OCO3` (configuration not stated): the T/C is, setting by setting: (endpoint: mean survival time, dose: 75.0 mg/kg/injection, schedule: Q01DX001 (ip), vehicle: saline) 104 % of control; (endpoint: mean survival time, dose: 150.0 mg/kg/injection, schedule: Q01DX001 (ip), vehicle: saline) 97 % of control; (endpoint: mean survival time, dose: 300.0 mg/kg/injection, schedule: Q01DX001 (ip), vehicle: saline) 95 % of control.

Take `OC(c1ccccc1)(c1ccccc1)c1ccccc1` (tested in a mixture with another compound): the T/C is, setting by setting: under setting [1], 98 % of control; under setting [2], 91 % of control; under setting [3], 97 % of control.

For the compound `O=C(OC1CCC(c2ccccc2)C1)c1cc([N+](=O)[O-])cc([N+](=O)[O-])c1` (configuration not stated), the T/C was 92 % of control (endpoint: mean survival time, dose: 75.0 mg/kg/injection, schedule: Q01DX001 (ip), vehicle: other); 92 % of control (endpoint: mean survival time, dose: 150.0 mg/kg/injection, schedule: Q01DX001 (ip), vehicle: other); 92 % of control (endpoint: mean survival time, dose: 300.0 mg/kg/injection, schedule: Q01DX001 (ip), vehicle: other).

On to `C[n+]1cccc(NC(=O)COc2ccc(Cl)c(Cl)c2)c1`, for which the T/C is, setting by setting: (endpoint: mean survival time, dose: 25.0 mg/kg/injection, schedule: Q04DX003 (ip), vehicle: saline with Tween-80) 106 % of control; (endpoint: mean survival time, dose: 50.0 mg/kg/injection, schedule: Q04DX003 (ip), vehicle: saline with Tween-80) 104 % of control; under setting [1], 97 % of control and 104 % of control.

Consider `CC(C)(C)C1=CC(=O)C(C#N)=C(C#N)C1=O`, for which the T/C (endpoint: mean survival time, dose: 25.0 mg/kg/injection, schedule: Q01DX009 (ip), vehicle: saline with Tween-80) is 96 % of control.

Consider `CC(=O)OCC1OC(OC(C)=O)C(NC(=O)Nc2cccc([N+](=O)[O-])c2)C(OC(C)=O)C1OC(C)=O` (configuration not stated), for which the T/C was 96 % of control (endpoint: mean survival time, dose: 12.5 mg/kg/injection, schedule: Q01DX009 (ip), vehicle: other); 96 % of control (endpoint: mean survival time, dose: 25.0 mg/kg/injection, schedule: Q01DX009 (ip), vehicle: other); 98 % of control (endpoint: mean survival time, dose: 50.0 mg/kg/injection, schedule: Q01DX009 (ip), vehicle: other); 100 % of control (endpoint: mean survival time, dose: 100.0 mg/kg/injection, schedule: Q01DX009 (ip), vehicle: other); 93 % of control (endpoint: mean survival time, dose: 200.0 mg/kg/injection, schedule: Q01DX009 (ip), vehicle: other).

Turning to `CCc1ncc(C(C)(O)c2ccccc2)n1Cc1ccccc1` (configuration not stated), the T/C under setting [5] is 95 % of control, the T/C under setting [6] is 90 % of control and the T/C under setting [7] was 94 % of control.

On to `O=C1SC(c2ccccc2)=S=C1c1ccccc1`, for which the T/C reads like this: (endpoint: median survival time, dose: 25.0 mg/kg/injection, schedule: Q01DX009 (ip), vehicle: saline with Tween-80) 100 % of control; (endpoint: median survival time, dose: 50.0 mg/kg/injection, schedule: Q01DX009 (ip), vehicle: saline with Tween-80) 105 % of control; (endpoint: median survival time, dose: 100.0 mg/kg/injection, schedule: Q01DX009 (ip), vehicle: saline with Tween-80) 103 % of control; (endpoint: median survival time, dose: 200.0 mg/kg/injection, schedule: Q01DX009 (ip), vehicle: saline with Tween-80) 97 % of control; (endpoint: median survival time, dose: 400.0 mg/kg/injection, schedule: Q01DX009 (ip), vehicle: saline with Tween-80) 101 % of control.

With `CCCCCCCC(=O)Nc1c(C)cccc1C`, the T/C runs as follows: under setting [5], 96 % of control; under setting [6], 88 % of control; under setting [7], 91 % of control.

Take `C=C(Br)CNC(=O)Nc1c2ccccc2nc2ccccc12`: the T/C is, setting by setting: (endpoint: mean survival time, dose: 25.0 mg/kg/injection, schedule: Q01DX009 (ip), vehicle: Klucel (hydroxypropylcellulose) (HPC)) 97 % of control; (endpoint: mean survival time, dose: 50.0 mg/kg/injection, schedule: Q01DX009 (ip), vehicle: Klucel (hydroxypropylcellulose) (HPC)) 98 % of control; (endpoint: mean survival time, dose: 100.0 mg/kg/injection, schedule: Q01DX009 (ip), vehicle: Klucel (hydroxypropylcellulose) (HPC)) 97 % of control.

For the compound `CC(C)(C)C(=O)CC(=O)C(C)(C)C.CC(C)(C)C(=O)CC(=O)C(C)(C)C.CC(C)(C)C(=O)CC(=O)C(C)(C)C.[Y]`, the T/C under setting [1] was 97 % of control, the T/C under setting [2] was 95 % of control and the T/C under setting [3] was 91 % of control.

For the compound `C=C1OC(n2cnc3c(N)ncnc32)C(O)C1O` (configuration not stated), the T/C (endpoint: mean survival time, dose: 100.0 mg/kg/injection, schedule: Q01DX001 (ip), vehicle: saline) was 98 % of control; the T/C (endpoint: mean survival time, dose: 200.0 mg/kg/injection, schedule: Q01DX001 (ip), vehicle: saline) is 101 % of control; the T/C (endpoint: mean survival time, dose: 400.0 mg/kg/injection, schedule: Q01DX001 (ip), vehicle: saline) is 98 % of control.

Turning to `CCC(=O)O.CCC(=O)O.CCC(=O)O.CCC(=O)O.O=P1(N(CCCl)CCCl)NCCCO1.O=P1(N(CCCl)CCCl)NCCCO1.[Rh].[Rh]` (configuration not stated), the T/C (endpoint: mean survival time, dose: 0.5 mg/kg/injection, schedule: Q01DX001 (ip), vehicle: water) is 92 % of control; the T/C (endpoint: mean survival time, dose: 1.0 mg/kg/injection, schedule: Q01DX001 (ip), vehicle: water) is 92 % of control; the T/C (endpoint: mean survival time, dose: 2.0 mg/kg/injection, schedule: Q01DX001 (ip), vehicle: water) is 102 % of control; the T/C (endpoint: mean survival time, dose: 4.0 mg/kg/injection, schedule: Q01DX001 (ip), vehicle: water) is 107 % of control.

Regarding `CC([NH-])CC[NH-].[Cl][Pt+2][Cl]` (configuration not stated), the T/C (endpoint: mean survival time, dose: 6.25 mg/kg/injection, schedule: Q04DX003 (ip), vehicle: saline with Tween-80) is 151 % of control.

For `CCNC1=C(C)C(=O)c2c(c(COC(N)=O)c3n2CC(NC(C)=O)C3O)C1=O` (configuration not stated), the T/C is, setting by setting: (endpoint: mean survival time, dose: 33.0 mg/kg/injection, schedule: Q01DX001 (ip), vehicle: carboxymethylcellulose (CMC)) 98 % of control; (endpoint: mean survival time, dose: 50.0 mg/kg/injection, schedule: Q01DX001 (ip), vehicle: carboxymethylcellulose (CMC)) 98 % of control; (endpoint: mean survival time, dose: 75.0 mg/kg/injection, schedule: Q01DX001 (ip), vehicle: carboxymethylcellulose (CMC)) 102 % of control.

With `COC(=O)CC(=O)CBr`, the T/C (endpoint: mean survival time, dose: 5.0 mg/kg/injection, schedule: Q01DX001 (ip), vehicle: saline with Tween-80) was 95 % of control; the T/C (endpoint: mean survival time, dose: 5.0 mg/kg/injection, schedule: Q01DX009 (ip), vehicle: saline with Tween-80) is 100 % of control; the T/C (endpoint: mean survival time, dose: 10.0 mg/kg/injection, schedule: Q01DX001 (ip), vehicle: saline with Tween-80) was 95 % of control; the T/C (endpoint: mean survival time, dose: 10.0 mg/kg/injection, schedule: Q01DX009 (ip), vehicle: saline with Tween-80) was 97 % of control; the T/C (endpoint: mean survival time, dose: 20.0 mg/kg/injection, schedule: Q01DX001 (ip), vehicle: saline with Tween-80) was 95 % of control; the T/C (endpoint: mean survival time, dose: 20.0 mg/kg/injection, schedule: Q01DX009 (ip), vehicle: saline with Tween-80) is 97 % of control.
